These results are taken from ChEMBL document CHEMBL5120859, “Optimization of 4-arylthiophene-3-carboxylic acid derivatives as inhibitors of ANO1: Lead optimization studies toward their analgesic efficacy for inflammatory pain” (Eur J Med Chem, 2022).

SMILES strings stand for the structures. Active and inactive are the calls of the source. No cut-off for these calls is given here.

Data set [1] in a line: Tmax in C57BL/6 mouse at 80 mg/kg,IG measured upto 24 hrs by HPLC-MS/MS analysis. Type of data set: ADME, organism-based. As to conditions: in vivo, po.
Data set [2] concerns the target T1, Anoctamin-2 (Homo sapiens) (UniProt Q9NQ90).
T1 sequence (whole entry): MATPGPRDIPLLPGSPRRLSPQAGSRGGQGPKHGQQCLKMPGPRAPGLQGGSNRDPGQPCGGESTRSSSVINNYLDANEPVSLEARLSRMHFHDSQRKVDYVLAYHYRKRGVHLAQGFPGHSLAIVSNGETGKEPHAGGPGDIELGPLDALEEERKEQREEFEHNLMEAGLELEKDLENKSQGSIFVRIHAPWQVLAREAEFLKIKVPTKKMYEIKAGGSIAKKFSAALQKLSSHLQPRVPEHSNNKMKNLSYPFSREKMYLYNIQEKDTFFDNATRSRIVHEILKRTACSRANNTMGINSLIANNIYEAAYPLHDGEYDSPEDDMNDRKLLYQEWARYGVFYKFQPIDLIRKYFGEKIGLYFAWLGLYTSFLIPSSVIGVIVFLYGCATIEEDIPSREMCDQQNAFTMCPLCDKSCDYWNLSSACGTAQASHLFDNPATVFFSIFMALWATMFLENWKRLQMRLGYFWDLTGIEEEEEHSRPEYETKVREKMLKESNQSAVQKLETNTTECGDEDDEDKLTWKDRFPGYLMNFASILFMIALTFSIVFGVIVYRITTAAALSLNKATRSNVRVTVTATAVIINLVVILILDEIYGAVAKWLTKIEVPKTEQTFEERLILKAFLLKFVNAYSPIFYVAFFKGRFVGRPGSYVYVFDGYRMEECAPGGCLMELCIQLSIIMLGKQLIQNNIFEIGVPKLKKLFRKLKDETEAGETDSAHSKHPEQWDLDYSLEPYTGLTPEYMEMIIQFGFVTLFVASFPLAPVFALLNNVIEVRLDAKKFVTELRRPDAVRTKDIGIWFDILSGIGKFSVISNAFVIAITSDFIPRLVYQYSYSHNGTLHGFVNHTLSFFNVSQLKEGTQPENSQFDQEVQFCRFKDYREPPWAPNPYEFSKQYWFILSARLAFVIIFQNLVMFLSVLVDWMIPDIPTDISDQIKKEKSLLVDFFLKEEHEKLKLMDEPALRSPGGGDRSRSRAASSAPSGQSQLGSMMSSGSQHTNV
The data set can be described thus: Inhibition of human ANO2 expressed in HEK293 cells at 30 uM incubated for 5 mins by whole cell patch clamp electrophysiology relative to control. Type of data set: cell-based. A general note: Patch clamp records ionic current or voltage across a cell membrane.

The target of data set [3] is T2, Anoctamin-1 (Homo sapiens) (UniProt Q5XXA6).
T2 sequence (whole entry): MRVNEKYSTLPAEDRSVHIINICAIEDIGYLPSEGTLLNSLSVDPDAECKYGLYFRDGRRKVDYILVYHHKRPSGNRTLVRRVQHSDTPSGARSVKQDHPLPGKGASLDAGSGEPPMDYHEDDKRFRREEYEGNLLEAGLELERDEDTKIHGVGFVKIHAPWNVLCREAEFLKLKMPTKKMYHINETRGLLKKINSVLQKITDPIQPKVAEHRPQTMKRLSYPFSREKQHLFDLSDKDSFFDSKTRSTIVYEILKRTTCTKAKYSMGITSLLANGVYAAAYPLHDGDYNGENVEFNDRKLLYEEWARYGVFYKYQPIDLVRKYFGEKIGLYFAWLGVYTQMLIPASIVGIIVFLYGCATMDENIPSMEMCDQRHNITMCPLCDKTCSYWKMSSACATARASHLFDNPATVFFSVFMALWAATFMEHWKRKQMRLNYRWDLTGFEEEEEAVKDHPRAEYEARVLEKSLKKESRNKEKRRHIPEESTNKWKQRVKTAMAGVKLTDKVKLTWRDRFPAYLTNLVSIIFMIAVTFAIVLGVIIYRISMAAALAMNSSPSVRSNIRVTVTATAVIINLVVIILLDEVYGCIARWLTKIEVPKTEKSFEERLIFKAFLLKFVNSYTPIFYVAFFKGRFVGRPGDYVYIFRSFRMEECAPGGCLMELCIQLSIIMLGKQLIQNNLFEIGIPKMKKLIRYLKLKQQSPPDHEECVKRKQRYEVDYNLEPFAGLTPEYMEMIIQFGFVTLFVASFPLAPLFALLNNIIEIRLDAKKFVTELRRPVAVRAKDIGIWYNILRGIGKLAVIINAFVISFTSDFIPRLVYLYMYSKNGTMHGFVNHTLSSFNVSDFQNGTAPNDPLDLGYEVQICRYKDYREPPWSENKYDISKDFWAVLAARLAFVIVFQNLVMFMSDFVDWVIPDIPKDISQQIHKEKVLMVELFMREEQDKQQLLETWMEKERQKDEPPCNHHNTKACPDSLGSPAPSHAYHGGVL
The data set can be described thus: Inhibition of YFP tagged ANO1 (unknown origin) expressed in FRT cells at 30 uM incubated for 24 hrs by whole cell patch clamp electrophysiology relative to control. Type of data set: cell-based.

The subject of a further data set is Mus musculus. Nature of the data set: Analgesic activity in C57BL/6 mouse model of capsaicin-induced allodynia assessed as reduction on foot licking pain response at 80 mg/kg,po measured after 5 mins. It counts as functional, organism-based.
Data set [4] is described as follows: Cmax in C57BL/6 mouse at 40 mg/kg,iv measured upto 24 hrs by HPLC-MS/MS analysis. Also noted: time < 24 hrs, dose 40 mg/kg, route iv. The settings on record: in vivo. Type of data set: ADME, organism-based.
Data set [5] addresses Voltage-dependent N-type calcium channel subunit alpha-1B (Homo sapiens) (UniProt Q00975). Nature of the data set: Inhibition of Cav2.2 (unknown origin) at a holding potential +10 mV at 30 uM by whole cell patch clamp electrophysiology relative to control.
A short description of data set [6]: Cmax in C57BL/6 mouse at 80 mg/kg,IG measured upto 24 hrs by HPLC-MS/MS analysis. Type of data set: ADME, organism-based. Further details: dose 80 mg/kg, time < 24 hrs, route ig. The settings on record: in vivo, po.
In data set [7] the target is Transient receptor potential cation channel subfamily V member 1 (Homo sapiens) (UniProt Q8NER1). Nature of the data set: Inhibition of TRPV1 (unknown origin) at a holding potential +100 mV at 30 uM by whole cell patch clamp electrophysiology relative to control.
Data set [8] can be described thus: Cmax in C57BL/6 mouse at 40 mg/kg,IG measured upto 24 hrs by HPLC-MS/MS analysis. It counts as ADME, organism-based. The settings on record: in vivo, po. Also noted: dose 40 mg/kg, time < 24 hrs, route ig.
A short description of data set [9]: Plasma concentration in C57BL/6 mouse at 40 mg/kg,IG measured after 24 hrs by HPLC analysis. Type of data set: ADME, organism-based. The settings on record: po.
The nature of data set [10]: Volume of distribution at steady state in C57BL/6 mouse at 40 mg/kg,iv measured upto 24 hrs by HPLC-MS/MS analysis. Type of data set: ADME, organism-based. As to conditions: in vivo, read-out: Vdss.
Data set [11] is described as follows: Ratio of drug concentration in brain to plasma in C57BL/6 mouse at 40 mg/kg,IG measured after 0.25 hrs by HPLC analysis. As to conditions: po. It counts as ADME, organism-based.
Data set [12] is described as follows: Tmax in C57BL/6 mouse at 40 mg/kg,iv measured upto 24 hrs by HPLC-MS/MS analysis. Type of data set: ADME, organism-based. As to conditions: in vivo.
In data set [13] the target is Sodium channel protein type 7 subunit alpha (Homo sapiens) (UniProt Q01118). Nature of the data set: Inhibition of Nav1.7 (unknown origin) in resting condition at 30 uM by whole cell patch clamp electrophysiology relative to control.
The nature of data set [14]: MRT (0 to t) in C57BL/6 mouse at 40 mg/kg,iv measured upto 24 hrs by HPLC-MS/MS analysis. It counts as ADME, organism-based. The settings on record: in vivo.

Sequence of Sodium channel protein type 7 subunit alpha (Homo sapiens) (Q01118 whole entry): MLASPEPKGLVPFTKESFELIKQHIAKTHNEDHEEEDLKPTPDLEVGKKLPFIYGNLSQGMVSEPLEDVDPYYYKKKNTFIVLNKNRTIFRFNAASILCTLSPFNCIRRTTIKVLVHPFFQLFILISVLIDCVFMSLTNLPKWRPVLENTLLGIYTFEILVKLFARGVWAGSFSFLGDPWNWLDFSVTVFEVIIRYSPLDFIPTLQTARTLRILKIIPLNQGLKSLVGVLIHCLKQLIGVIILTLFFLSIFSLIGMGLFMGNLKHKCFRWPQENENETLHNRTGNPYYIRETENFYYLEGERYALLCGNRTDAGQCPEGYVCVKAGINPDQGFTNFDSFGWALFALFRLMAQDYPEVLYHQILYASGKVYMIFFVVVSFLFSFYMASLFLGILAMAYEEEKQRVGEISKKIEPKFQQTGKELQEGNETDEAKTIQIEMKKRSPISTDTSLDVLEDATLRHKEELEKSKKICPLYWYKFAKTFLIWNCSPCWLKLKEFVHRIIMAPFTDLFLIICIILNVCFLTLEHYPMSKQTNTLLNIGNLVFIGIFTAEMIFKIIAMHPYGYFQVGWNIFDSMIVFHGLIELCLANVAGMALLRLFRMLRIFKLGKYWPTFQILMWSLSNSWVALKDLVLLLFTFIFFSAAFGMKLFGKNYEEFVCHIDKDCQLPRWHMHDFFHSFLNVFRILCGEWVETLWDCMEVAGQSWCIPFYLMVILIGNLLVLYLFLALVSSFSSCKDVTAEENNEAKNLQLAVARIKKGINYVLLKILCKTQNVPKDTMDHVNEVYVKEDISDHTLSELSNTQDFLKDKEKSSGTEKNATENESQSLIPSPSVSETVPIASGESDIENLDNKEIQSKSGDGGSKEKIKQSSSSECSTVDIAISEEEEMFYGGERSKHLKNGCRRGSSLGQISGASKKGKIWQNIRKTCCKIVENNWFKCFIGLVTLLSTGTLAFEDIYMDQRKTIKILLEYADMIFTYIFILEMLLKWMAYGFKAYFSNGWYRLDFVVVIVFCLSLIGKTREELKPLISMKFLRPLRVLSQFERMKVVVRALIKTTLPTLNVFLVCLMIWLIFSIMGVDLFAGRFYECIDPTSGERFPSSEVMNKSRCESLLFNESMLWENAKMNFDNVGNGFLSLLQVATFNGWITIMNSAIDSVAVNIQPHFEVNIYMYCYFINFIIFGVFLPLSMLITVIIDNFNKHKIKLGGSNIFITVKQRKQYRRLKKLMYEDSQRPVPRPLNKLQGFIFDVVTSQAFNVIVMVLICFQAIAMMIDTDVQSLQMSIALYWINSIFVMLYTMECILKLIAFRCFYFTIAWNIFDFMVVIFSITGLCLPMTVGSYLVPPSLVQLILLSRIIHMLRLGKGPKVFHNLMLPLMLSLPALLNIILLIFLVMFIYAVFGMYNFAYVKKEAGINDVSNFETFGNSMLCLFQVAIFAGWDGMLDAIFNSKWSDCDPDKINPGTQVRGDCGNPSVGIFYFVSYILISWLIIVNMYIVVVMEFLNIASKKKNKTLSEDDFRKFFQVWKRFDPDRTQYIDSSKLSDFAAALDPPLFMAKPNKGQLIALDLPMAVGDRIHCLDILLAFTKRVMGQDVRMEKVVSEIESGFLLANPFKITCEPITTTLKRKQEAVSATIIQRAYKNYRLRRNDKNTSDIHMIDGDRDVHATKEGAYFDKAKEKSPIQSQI
Sequence of Transient receptor potential cation channel subfamily V member 1 (Homo sapiens) (Q8NER1 whole entry): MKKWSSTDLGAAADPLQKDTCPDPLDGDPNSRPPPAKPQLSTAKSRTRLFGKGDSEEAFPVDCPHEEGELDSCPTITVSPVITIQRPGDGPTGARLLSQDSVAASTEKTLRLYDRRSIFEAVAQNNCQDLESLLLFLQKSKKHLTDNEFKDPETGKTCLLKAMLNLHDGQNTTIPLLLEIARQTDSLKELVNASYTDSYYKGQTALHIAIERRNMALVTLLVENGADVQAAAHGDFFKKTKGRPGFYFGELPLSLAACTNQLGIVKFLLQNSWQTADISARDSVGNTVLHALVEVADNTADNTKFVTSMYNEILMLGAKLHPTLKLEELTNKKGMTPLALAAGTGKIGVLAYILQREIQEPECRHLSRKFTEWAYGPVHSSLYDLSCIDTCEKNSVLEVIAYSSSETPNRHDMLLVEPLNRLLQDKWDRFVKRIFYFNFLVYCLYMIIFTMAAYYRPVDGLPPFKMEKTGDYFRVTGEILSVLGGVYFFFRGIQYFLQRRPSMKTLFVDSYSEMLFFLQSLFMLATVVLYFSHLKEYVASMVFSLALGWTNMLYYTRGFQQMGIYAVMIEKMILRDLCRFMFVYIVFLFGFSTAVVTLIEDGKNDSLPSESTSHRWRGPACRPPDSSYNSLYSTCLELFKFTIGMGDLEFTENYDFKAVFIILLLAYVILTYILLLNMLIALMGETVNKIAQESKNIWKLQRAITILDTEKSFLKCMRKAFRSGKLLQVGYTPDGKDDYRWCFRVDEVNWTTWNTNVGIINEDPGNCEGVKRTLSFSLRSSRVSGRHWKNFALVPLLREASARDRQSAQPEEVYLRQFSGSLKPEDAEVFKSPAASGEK
Sequence of Voltage-dependent N-type calcium channel subunit alpha-1B (Homo sapiens) (Q00975 whole entry, looked up): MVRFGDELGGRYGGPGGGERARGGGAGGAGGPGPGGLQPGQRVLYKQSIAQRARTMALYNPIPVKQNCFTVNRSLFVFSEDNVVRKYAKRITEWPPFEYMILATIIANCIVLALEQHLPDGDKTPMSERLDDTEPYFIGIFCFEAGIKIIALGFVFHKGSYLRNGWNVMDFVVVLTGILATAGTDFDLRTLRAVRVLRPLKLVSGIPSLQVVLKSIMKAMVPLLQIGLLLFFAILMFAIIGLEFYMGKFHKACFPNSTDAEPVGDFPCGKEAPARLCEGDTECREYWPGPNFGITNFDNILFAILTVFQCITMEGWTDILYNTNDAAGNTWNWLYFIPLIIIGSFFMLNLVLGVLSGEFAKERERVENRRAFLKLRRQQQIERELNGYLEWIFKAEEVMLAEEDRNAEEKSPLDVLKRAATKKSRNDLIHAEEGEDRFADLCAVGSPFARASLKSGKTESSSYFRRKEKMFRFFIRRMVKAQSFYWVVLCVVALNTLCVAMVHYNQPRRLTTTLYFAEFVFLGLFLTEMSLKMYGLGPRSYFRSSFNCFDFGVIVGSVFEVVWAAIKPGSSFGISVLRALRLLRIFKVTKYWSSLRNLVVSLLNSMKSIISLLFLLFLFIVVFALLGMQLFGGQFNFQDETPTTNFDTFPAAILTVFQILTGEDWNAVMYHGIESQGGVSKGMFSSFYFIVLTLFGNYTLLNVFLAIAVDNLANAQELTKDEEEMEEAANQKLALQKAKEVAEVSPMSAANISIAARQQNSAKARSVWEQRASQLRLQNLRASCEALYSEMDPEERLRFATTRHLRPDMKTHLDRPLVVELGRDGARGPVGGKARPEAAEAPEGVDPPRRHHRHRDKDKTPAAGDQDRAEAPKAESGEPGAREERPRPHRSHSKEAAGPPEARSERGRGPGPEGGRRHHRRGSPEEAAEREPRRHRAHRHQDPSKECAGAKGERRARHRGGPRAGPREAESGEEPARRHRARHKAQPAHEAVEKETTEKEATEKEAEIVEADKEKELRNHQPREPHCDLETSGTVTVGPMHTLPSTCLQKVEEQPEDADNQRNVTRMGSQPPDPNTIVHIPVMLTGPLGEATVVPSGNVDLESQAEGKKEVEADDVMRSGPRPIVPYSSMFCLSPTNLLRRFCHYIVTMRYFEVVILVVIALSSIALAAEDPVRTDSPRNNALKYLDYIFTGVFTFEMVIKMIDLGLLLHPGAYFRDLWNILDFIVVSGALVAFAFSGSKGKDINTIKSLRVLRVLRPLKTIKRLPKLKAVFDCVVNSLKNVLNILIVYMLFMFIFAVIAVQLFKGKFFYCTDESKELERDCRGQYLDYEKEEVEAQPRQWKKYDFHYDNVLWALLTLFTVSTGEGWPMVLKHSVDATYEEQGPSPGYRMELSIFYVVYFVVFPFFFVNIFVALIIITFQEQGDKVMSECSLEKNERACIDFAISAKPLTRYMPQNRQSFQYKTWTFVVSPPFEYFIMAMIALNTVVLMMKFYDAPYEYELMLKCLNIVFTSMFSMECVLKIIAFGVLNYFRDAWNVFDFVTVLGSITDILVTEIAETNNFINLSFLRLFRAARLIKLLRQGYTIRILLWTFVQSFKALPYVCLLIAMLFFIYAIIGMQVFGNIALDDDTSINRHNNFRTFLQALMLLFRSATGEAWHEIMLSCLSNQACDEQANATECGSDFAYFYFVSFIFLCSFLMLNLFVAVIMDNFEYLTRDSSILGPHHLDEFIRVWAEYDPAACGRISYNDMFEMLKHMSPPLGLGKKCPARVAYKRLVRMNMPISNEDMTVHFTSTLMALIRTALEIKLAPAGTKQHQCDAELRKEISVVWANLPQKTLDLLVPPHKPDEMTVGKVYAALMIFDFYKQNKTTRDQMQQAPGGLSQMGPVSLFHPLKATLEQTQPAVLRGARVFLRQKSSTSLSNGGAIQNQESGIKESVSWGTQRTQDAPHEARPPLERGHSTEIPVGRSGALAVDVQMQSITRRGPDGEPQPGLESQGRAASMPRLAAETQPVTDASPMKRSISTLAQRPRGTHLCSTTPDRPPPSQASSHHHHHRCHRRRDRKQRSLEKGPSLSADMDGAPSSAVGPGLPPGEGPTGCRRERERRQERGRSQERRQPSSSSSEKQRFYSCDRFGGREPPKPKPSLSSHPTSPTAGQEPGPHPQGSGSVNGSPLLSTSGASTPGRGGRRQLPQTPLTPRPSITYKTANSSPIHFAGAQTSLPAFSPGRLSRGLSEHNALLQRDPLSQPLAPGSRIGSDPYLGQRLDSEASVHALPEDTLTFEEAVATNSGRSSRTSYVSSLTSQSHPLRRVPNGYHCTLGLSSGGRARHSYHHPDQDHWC

A word on the Tmax: it is the time from dosing to the highest level. In general, inhibition refers to the share of the control response that was lost under treatment. The term Cmax denotes the peak of the concentration-time curve. Usually MRT last stands for the average time that molecules of a dose stay in the body. `O=C(Nc1scc(-c2ccc(Cl)cc2)c1C(=O)O)c1cc(F)ccc1F`: the Tmax in data set [1] came to 10.2 min; in [12] it was 4.8 min. In addition, the inhibition turned out to be 72.8% in data set [2]; 95.6% in data set [3]; 32% in [5]; 17% in data set [7]; 4.4% in data set [13]. Also, the outcome in the data set on Mus musculus was Active. The Cmax turned out to be 183 µg/mL in data set [4], 130 µg/mL in [6] and 97.7 µg/mL in [8]. In addition, the concentration at 24 h in data set [9] turned out to be 1670 ng/mL. Also, the Vd in data set [10] worked out at 0.8 L/kg. The Ratio in [11] is on record as 1.5%. Further, in data set [14], the MRT last at 24 h was determined as 4.9 h.
